pIC50: −log10 of the molar value.
Assays:
Format in all cases: biochemical
TRKB = TRKB (Homo sapiens, UniProt Q16620); experiment: Kinase profile panel IC50
ROS = ROS (Homo sapiens, UniProt P08922); experiment: Kinase profile panel IC50
HIPK1 = HIPK1 (Homo sapiens, UniProt Q86Z02); experiment: Kinase profile panel IC50
HIPK2 = HIPK2 (Homo sapiens, UniProt Q9H2X6); experiment: Kinase profile panel IC50
PIM1 = PIM1 (Homo sapiens, UniProt P11309); experiment: Kinase profile panel IC50
PIM2 = PIM2 (Homo sapiens, UniProt Q9P1W9); experiment: Kinase profile panel IC50
haspin = molecular target: T1, haspin (Homo sapiens, UniProt Q8TF76); experiment: Carna Bioscience haspin assay
T1 construct: purchased Carna Bioscience (vendor's assay)
T1 sequence (Q8TF76 1-798): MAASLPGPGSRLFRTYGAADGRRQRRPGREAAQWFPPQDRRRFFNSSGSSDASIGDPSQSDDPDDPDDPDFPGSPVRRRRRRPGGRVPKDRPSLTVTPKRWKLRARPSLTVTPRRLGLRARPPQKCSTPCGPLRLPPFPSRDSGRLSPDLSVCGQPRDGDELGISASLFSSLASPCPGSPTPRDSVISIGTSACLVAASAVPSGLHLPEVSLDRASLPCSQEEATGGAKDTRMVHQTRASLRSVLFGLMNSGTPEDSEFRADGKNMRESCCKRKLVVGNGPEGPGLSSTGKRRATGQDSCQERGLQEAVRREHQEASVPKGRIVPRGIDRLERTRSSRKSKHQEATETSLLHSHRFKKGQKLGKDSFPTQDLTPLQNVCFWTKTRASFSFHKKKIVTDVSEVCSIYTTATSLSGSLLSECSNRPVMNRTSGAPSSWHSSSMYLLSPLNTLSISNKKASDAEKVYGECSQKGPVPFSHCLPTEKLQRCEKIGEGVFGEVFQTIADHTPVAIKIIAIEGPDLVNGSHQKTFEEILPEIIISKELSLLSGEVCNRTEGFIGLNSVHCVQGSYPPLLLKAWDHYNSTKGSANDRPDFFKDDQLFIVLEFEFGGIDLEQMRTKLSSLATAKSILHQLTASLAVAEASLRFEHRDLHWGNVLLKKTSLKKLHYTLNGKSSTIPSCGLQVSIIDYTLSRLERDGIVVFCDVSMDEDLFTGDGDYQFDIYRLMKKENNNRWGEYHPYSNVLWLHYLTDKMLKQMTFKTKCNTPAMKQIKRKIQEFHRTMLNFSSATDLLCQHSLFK

[1] = tested on: panel of two hundred and seventy kinases; experiment: Functional inhibition profiling against kinase panel at 10 μM; settings: panel of 270 kinases
[2] = molecular target: T2, human Haspin (MBP-Haspin) (Homo sapiens, UniProt Q8TF76); experiment: TR-FRET Haspin assay; settings: for haspin inhibitory activity (SAR, in words): compared with LDN-192960
T2 construct: This full-length Haspin gene was cloned into the pMALc2E vector; made in house; host or cells: E. coli Rosetta2(DE3)pLysS
T2 sequence (Q8TF76 1-798): T1 sequence (Q8TF76 1-798)
From the text: To identify Haspin inhibitors by high throughput screening, a homogeneous kinase assay based on time-resolved fluorescence resonance energy transfer (TR-FRET) was designed. […] Such TR-FRET assays use a lanthanide donor species conjugated to a phospho-specific antibody that binds specifically to the product of kinase reaction labeled with an acceptor fluorophore. This induced proximity of the donor and acceptor fluorophores leads to resonance energy transfer, resulting in a detectable increase of TR-FRET signal.
In the assay described below, a Europium chelate, conjugated to an anti-Histone H3T3ph antibody, as the donor species was used. The acceptor fluorophore, allophycocyanin (APC) was used as a streptavidin conjugate that could bind to a biotinylated Histone H3 peptide substrate. […] Lanthanide ions like Europium have a much longer emission lifetime, often measured in hundreds of microseconds, compared with traditional organic reagents that have lifetimes measured on the scale of […]. TR-FRET assays are thus less susceptible to compound interference generated by short-lived compound or matrix component fluorescence. Furthermore, TR-FRET can be carried out in a homogeneous format that avoids time-consuming separation steps that introduce variability. Based on these properties TR-FRET based assay kinases have been widely used in high throughput screening.
The reaction was incubated for 10 minutes at room temperature. Reaction was terminated by the addition of 10 μl 50 mM EDTA, 2 nM Europium labeled anti-Histone H3T3ph antibody, 40 nM Streptavidin-APC.
Data were analyzed using GraphPad Prism Version 4 (GraphPad Software Inc, La Jolla, Calif.). No inhibitor (“MAX”) and Staurosporine inhibitor (“MIN”) controls were used to calculate Z′ values and signal to background ratios during the high throughput screen. […] Km concentrations were also determined by non-linear regression.
(§1) The human haspin kinase inhibitory activity of the various compounds was evaluated using the same assay utilized for the HTS, except in the presence of varying test compound concentrations. DYRK2 kinase inhibitory activity was measured by ^33P-incorporation into Woodtide peptide substrate in the presence of human DYRK2 containing an N-terminal GST-fusion protein and γ^33P-ATP.

human DYRK2 (GST-DYRK2) = molecular target: T3, human DYRK2 (GST-DYRK2) (Homo sapiens, UniProt Q92630); experiment: DYRK2 inhibitor assay (33P incorporation into Woodtide peptide); settings: for pIC50: DYRK2 assay of Example 7; for DYRK2 inhibitory activity (SAR, in words): compared with LDN-192960
T3 construct: purchased Carna Biosciences, Japan
T3 sequence (Q92630 1-601): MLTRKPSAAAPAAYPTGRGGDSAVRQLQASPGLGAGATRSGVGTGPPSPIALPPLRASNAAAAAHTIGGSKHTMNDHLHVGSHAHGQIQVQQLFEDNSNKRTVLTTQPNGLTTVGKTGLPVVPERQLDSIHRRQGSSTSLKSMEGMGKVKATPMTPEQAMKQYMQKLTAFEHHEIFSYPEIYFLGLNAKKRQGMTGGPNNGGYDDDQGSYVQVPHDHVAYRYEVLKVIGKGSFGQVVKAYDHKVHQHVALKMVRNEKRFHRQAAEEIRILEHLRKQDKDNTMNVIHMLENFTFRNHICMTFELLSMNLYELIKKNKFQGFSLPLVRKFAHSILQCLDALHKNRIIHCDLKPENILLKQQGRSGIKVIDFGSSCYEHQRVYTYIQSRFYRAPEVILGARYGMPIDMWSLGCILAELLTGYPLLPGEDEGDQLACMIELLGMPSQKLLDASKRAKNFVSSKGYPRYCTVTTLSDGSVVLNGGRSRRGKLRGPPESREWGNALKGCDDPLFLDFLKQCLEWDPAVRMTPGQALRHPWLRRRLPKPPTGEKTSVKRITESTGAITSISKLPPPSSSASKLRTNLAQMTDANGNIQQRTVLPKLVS
Description: Reactions were stopped after 10 minutes by addition of 30 mM EDTA followed by spotting 10 μl of the reaction mix on to P81 phosphocellulose filter (Whatman). […] Background level of ^33P incorporation was defined from control reaction lacking peptide.
as §1

Chain of HIPK1 (Q86Z02 whole entry, species assumed): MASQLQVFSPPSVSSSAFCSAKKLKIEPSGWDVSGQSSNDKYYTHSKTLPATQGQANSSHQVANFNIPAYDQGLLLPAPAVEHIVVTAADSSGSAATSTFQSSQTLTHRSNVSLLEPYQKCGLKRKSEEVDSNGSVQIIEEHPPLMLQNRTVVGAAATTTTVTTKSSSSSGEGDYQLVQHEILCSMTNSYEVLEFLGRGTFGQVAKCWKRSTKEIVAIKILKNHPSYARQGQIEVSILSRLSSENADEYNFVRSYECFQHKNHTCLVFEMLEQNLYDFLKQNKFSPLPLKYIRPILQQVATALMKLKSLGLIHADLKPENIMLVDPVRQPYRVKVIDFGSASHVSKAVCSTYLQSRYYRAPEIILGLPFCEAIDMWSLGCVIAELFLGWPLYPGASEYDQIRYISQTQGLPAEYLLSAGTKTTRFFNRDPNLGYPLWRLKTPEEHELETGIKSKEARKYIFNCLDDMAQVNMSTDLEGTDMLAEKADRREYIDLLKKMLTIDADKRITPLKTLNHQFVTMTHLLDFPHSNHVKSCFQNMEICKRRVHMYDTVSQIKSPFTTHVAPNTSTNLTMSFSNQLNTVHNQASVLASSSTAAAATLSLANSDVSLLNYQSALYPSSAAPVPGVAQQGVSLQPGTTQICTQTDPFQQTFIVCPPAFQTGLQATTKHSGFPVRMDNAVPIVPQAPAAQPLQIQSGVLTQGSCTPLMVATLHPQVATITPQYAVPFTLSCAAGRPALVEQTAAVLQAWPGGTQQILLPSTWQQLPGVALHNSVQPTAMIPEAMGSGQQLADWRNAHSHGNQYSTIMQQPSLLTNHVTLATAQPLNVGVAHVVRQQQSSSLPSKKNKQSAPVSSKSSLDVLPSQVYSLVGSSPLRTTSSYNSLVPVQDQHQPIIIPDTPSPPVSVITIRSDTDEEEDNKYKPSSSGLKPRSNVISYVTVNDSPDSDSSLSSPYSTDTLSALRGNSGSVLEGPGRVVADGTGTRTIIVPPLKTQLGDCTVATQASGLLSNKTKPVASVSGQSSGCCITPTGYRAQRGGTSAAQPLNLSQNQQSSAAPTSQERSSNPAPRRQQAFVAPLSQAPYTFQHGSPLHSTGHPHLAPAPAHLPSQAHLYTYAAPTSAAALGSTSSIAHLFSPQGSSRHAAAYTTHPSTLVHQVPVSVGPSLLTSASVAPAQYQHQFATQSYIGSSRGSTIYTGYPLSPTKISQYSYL
Chain of TRKB (Q16620 32-822, species assumed): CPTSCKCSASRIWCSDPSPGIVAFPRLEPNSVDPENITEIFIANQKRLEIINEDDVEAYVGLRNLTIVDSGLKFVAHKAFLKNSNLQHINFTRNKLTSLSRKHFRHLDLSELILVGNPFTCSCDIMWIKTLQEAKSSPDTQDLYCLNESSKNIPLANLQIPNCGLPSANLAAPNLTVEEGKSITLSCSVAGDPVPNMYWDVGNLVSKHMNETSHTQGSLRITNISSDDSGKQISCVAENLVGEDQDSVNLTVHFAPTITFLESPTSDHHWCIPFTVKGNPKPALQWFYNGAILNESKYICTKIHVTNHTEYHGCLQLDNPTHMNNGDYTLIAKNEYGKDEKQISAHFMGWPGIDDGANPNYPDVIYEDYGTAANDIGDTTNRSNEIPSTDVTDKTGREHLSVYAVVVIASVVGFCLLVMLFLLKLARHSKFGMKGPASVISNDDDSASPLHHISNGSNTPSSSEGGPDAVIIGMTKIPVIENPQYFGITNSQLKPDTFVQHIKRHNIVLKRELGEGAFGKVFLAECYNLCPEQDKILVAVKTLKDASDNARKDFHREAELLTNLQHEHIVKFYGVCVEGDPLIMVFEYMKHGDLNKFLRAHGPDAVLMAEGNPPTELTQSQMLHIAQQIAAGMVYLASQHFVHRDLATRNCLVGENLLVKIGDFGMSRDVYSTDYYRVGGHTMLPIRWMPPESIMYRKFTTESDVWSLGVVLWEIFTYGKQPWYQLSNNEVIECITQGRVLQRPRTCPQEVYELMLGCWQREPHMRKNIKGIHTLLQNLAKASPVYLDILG
Chain of PIM1 (P11309 whole entry, species assumed): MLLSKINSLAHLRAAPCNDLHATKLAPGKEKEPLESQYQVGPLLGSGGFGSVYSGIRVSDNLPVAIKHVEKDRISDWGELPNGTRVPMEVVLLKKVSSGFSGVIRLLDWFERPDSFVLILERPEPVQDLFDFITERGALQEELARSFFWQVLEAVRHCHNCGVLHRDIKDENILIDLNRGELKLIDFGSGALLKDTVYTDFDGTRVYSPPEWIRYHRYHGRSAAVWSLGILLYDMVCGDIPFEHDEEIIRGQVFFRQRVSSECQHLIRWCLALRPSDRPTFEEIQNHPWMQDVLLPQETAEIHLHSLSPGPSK
Chain of HIPK2 (Q9H2X6 whole entry, species assumed): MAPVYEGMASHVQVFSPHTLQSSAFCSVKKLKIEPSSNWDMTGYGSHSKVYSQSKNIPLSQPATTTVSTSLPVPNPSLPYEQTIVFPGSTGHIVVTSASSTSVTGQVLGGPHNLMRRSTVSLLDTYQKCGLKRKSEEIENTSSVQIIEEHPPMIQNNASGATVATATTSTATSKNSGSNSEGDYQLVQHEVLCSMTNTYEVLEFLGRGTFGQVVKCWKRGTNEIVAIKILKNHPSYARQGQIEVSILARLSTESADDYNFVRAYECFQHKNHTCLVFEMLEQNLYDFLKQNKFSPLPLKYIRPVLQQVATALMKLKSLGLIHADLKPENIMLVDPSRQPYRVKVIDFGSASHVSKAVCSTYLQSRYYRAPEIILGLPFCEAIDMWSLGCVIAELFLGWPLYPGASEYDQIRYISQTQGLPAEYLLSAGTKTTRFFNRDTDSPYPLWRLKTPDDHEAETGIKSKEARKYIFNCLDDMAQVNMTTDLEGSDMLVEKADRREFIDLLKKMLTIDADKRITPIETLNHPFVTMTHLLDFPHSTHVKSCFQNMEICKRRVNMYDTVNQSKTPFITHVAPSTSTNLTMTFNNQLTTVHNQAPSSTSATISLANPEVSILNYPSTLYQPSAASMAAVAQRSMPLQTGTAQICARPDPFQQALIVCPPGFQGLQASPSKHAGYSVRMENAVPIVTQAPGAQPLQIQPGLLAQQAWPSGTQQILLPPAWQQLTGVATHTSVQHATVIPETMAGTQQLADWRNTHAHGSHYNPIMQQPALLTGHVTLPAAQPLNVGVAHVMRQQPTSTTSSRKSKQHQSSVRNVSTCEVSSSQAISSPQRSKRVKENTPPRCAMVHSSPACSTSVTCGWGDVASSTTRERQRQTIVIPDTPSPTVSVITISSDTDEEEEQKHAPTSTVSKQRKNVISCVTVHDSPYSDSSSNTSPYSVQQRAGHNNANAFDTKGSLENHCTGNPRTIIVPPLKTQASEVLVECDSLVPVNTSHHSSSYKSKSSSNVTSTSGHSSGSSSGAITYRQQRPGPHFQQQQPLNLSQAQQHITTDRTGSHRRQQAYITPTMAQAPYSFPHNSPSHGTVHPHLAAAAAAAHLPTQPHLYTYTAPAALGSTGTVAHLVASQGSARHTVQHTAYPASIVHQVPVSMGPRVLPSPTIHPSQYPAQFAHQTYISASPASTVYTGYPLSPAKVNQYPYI
Chain of PIM2 (Q9P1W9 whole entry, species assumed): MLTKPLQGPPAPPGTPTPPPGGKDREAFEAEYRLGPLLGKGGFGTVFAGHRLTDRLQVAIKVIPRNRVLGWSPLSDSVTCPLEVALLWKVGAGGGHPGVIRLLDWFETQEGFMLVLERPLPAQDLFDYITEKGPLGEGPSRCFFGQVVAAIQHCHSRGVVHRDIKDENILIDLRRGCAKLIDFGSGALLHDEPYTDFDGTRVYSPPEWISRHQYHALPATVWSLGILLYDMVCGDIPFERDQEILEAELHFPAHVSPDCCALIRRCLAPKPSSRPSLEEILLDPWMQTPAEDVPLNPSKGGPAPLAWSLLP

Compound | pIC50 ([2]; TR-FRET assay of Example 3) | haspin inhibitory activity (SAR, in words) [2] | pIC50 (human DYRK2 (GST-DYRK2)) | DYRK2 inhibitory activity (SAR, in words) (human DYRK2 (GST-DYRK2)) | further results
COc1ccc2nc3ccc(OC)cc3c(SCCCN)c2c1 [LDN-192960] |  |  |  |  | pIC50 (TRKB): 4.04; pIC50 (ROS): 5.80; pIC50 (HIPK1): 5.85; pIC50 (HIPK2): 5.89; pIC50 (PIM1): 6.14; pIC50 (PIM2): 4.25; inhibition at 10 µM (haspin): 100%; number of other kinases inhibited by ≧90% [1]: ten
COc1cc2nc3ccccc3c(SCCCN)c2cc1OC [LDN-192965] | < 4.70 | loss of activity | < 5.00 | loss in activity | 
NCCCSc1c2cc(O)ccc2nc2ccc(O)cc12 [LDN-209838] | > 7.30 |  | > 6.70 |  | 
COc1cc(OC)c2nc3ccccc3c(NCCCN(C)C)c2c1 [LDN-209839] | < 4.70 |  | < 5.00 |  | 
CCN(CC)CCCNc1c2ccccc2nc2c(OC)cc(OC)cc12 [LDN-209840] | < 4.70 |  | < 6.00 |  | 
COc1ccc2nc3ccccc3c(SCCCN)c2c1 [LDN-209856] | > 7.30 |  | > 6.70 | significant erosion of potency | pIC50 ([2]; text of SAR study): > 7.00
COc1ccc2nc3ccc(C)cc3c(SCCCN)c2c1 [LDN-209928] | > 7.00 |  | > 6.30 | not as tolerated | pIC50 ([2]; text of SAR study): > 7.00
COc1ccc2nc3ccc(Cl)cc3c(SCCCN)c2c1 [LDN-209929] | > 7.00 |  | > 5.00 | not as tolerated | selectivity for haspin versus DYRK2 [2]: 180 fold; pIC50 ([2]; text of SAR study): > 7.22
COc1cc2c(SCCCN)c3ccccc3nc2cc1Cl [LDN-209957] | > 7.00 | still quite active | > 5.00 | not tolerated | 
COc1ccc2nc3ccc(OC)cc3c(SCCN)c2c1 [LDN-209958] | > 6.70 | reduced activity | > 6.30 |  | 
COc1ccc2nc3ccc(OC)cc3c(SCCCCN)c2c1 [LDN-209959] | > 7.30 | only a minimal impact on potency | > 7.30 |  | 
NCCCSc1c2ccccc2nc2ccccc12 [LDN-209961] | > 5.00 | inhibitory activity was dramatically reduced | > 5.00 | very detrimental | 
COc1ccc2nc3ccc(OC)cc3c(CCCCN)c2c1 [LDN-209973] | > 7.30 | retained potent inhibitory activity | > 6.30 | tolerated | reduction in DYRK2 potency (human DYRK2 (GST-DYRK2); relative to LDN-192960 (sulfur replaced with methylene)): 5 fold

Now from value to compound, other results behind:

pIC50 ([2]; TR-FRET assay of Example 3) | haspin inhibitory activity (SAR, in words) [2] | pIC50 (human DYRK2 (GST-DYRK2)) | DYRK2 inhibitory activity (SAR, in words) (human DYRK2 (GST-DYRK2)) | Compound | further results
> 8.00 | equally potent | > 6.70 |  | CNCCCSc1c2cc(OC)ccc2nc2ccc(OC)cc12 [LDN-209960] | 
> 5.30 | detrimental | > 5.00 | detrimental to DYRK2 inhibition | COc1ccc2nc3ccc(OC)cc3c(NCCCN)c2c1 [LDN-209962] | 
< 4.70 | detrimental | < 4.70 | detrimental to DYRK2 inhibition | COc1ccc2nc3ccc(OC)cc3c(OCCCN)c2c1 [LDN-209963] | 
> 5.00 |  | < 5.00 |  | COc1ccc2nc(-c3ccccc3)cc(SCCCN)c2c1 [LDN-209964] | 
> 6.30 |  | > 5.00 |  | COc1ccc2nc3c(c(SCCCN)c2c1)CCCC3 [LDN-211840] | 
> 5.00 | significant loss of activity |  | moderately potent | COc1ccc2nc3ccc(OC)cc3c(SCCCN3C(=O)c4ccccc4C3=O)c2c1 [LDN-211848] | 
> 5.00 | significant loss of activity | > 6.00 |  | COc1ccc2nc3ccccc3c(SCCCN3C(=O)c4ccccc4C3=O)c2c1 [LDN-211849] | 
> 7.30 | slight decrease in activity | > 6.30 |  | COc1ccc2nc3ccc(OC)cc3c(SCCCN(C)C)c2c1 [LDN-212055] | 

— patent US20130102627A1, “Acridines As Inhibitors Of Haspin And DYRK Kinases” (THE BRIGHAM AND WOMEN'S HOSPITAL, INC., priority 2010, published 2013)
